{"source": "patent US12377069B2", "about": "“Compounds, compositions, methods of using, and methods for preparing compounds” (UNIVERSITY OF LOUISVILLE RESEARCH FOUNDATION, INC., priority 2018, dated 2025)", "key": {"[1]": {"test_system": "Nrf2", "experiment": "Nrf2 expression, nuclear translocation and target genes", "format": "cell-based, human", "conditions": "for NQO1 expression in HT29 cells: 50 μM; for Nrf2 mRNA and protein levels / Nrf2 nuclear translocation: HT29, 50 μM; for Nrf2 nuclear translocation: 6 h", "protocol": "Real time PCR: Total RNA was isolated from cells/tissue using Maxwell® 16 LEV simplyRNA tissue kit (Promega) and reverse transcribed with TaqManC Reverse transcription Kit (Applied Biosystems, CA, USA). The transcribed cDNA (after dilution) was mixed with 100 nM gene specific primers (Real time primers LLC) and 1×SYBR green reaction mix (Power SYBR® Green PCR Master Mix; Applied Biosystems, CA, USA). Changes in gene expression was analyzed using CFX96™ Real-Time System (Bio Rad) and fold change in expression was calculated using 2^ΔΔCT method using GAPDH/0-actin as house keeping gene and normalized with untreated control.\nImmunoblots (Western blots): The total protein lysates were collected either from colon tissue/cells using radioimmunoprecipitation assay (RIPA) buffer (Sigma-Aldrich, USA) and quantified using BCA protein quantification kit (Thermo Scientific) as per instructional manual. Total protein (20-50 μg) of was resolved on NuPAGE™ 4-12% Bis-Tris gel (Novex Life technologies) and transferred to polyvinylidene difluoride membrane (0.22 μm pore; Millipore, USA). After blocking with 5% (w/v) skim milk powder (containing 1×TBS) for 1 h, the membrane was then incubated with respective antibodies at 4° C. overnight (dilutions of respective antibodies is given in Table A1). Next day, respective secondary antibody conjugated with Horseradish peroxidase were probed and the chemiluminescent substrate was used to detect the protein bands (ImageQuant LAS 4000). Densitometry analysis of bands were done using ImageJ software. Antibodies for Cldn4, Ocln, Cldn1, Cyp1A1, AhR, HO1, NQO1, Keap1, β-actin and Lamin B were purchased from Santa Cruz Biotechnologies (USA) and Nrf2 from Novus Biologicals (USA).\nConfocal Imaging: HT29 or CaCo2 or BMDM cells (50,000 cells/well) were plated on to 8-well chambered slides (154534PK; ThermoFisher Scientific) allowed them to grow overnight. The cells were induced with vehicle (0.01% DMSO) or UroA (50 μM) or UAS03 (50 μM) for desired time points and fixed with cold methonol. The AhR or Nrf2 or Cldn4 stained with respective antibodies (1:200 dilution) followed by fluorecently labelled (Alexa flour 594 for AhR and Alexa flour 488 for Nrf2 and Cldn4) secondary ab (1:500 dilution; ThermoFisher Scientific). The nucleus was stained with DAPI (Sigma Aldrich). The confocal images were captured using Nikon AIR confocal microscope using 60× magnification lense with appropriate laser channels."}, "[2]": {"test_system": "Nrf2", "experiment": "Nrf2 reporter (ARE-luciferase) assay", "format": "cell-based, human", "conditions": "HT29, 50 μM, 24 h", "protocol": "Nrf2-Reporter assay: ARE-luciferase plasmid vector was obtained from Cayman Chemicals. HT29 cells were transfected at 50% confluency using lipofectamine 3000 reagent (ThermoFisher Scientific). Briefly, cells were seeded in 6-well plates (0.5×10^6 cells) and grown for 24 h. The transfection complex containing 1 μg of plasmid DNA and transfection reagent was added to each well in absence of FBS. After 6 hr medium containing 10% FBS was added and cells were incubated for another 16-18 hr. These cells were treated with vehicle (0.01% DMSO) or UroA (50 μM) or UAS03 (50 μM) or sulforaphane (10 μM) for 24 h. After incubation with inducers, cells were lysed and firefly luciferase activities (luminiscence) were measured with Luciferase Assay System (Promega) using multiwell plate luminometer (BMG, LABTECH)."}, "[3]": {"test_system": "C57BL/6 mice", "experiment": "In vivo Miles assay (VEGF)", "conditions": "20 mg/kg oral gavage; VEGF 2.5 ng/mouse", "protocol": "Acute intoxication of alcohol can induce microvasculature leakage as well as direct exposure to endothelium leads to disruption of endothelial integrity. […] In addition, increased endothelial permeability enhances the extravasation of immune cells into liver leading to increased inflammation. To examine the effect of UroA/UAS03 on endothelial cell permeability, we utilized in vivo Evans Blue permeability assay. Briefly, C57BL/6 mice (n=4/group) were given LPS (100 μg) i.p. followed by treatment with UAS03 or UroA (20 mg/kg) after 1 h and 18 h. Evans blue (i.v.) was given to mice (24 h post LPS treatment) and 30 min later mice were euthanized and the Evans Blue from lung and liver tissues was extracted using formamide. The levels of Evans Blue was determined by OD at 620 nm. […] To evaluate direct impact of UroA or UAS03 on endothelial barrier function, we used in vivo Miles assay to test blood vessel permeability. We used vascular endothelial growth factor (VEGF) as vasodilator. In this assay, C57BL/6 mice (n=3 per group) were given vehicle or UroA or UAS03 (20 mg/kg; oral gavage). After 3 h, Evans blue (100 μL of 1% solution) was administered i.v. followed by intra-dermal administration of VEGF (2.5 ng/mouse) or PBS (control). […]"}, "[4]": {"test_system": "5FU resistant (5FUR) colon cancer cell lines", "experiment": "Cell viability of 5FU resistant colon cancer cell lines", "format": "cell-based", "conditions": "combination of 5FU"}}, "data": [{"smiles": "Oc1ccc2c(c1)COc1cc(O)ccc1-2", "note": "[UAS03, 6H-benzo[c]chromene-3,8-diol]", "values": [{"measurement": "NQO1 expression in HT29 cells", "setting": "[1]", "result": "induced NQO1 expression"}, {"measurement": "Nrf2 mRNA and protein levels", "setting": "[1]", "result": "upregulated Nrf2"}, {"measurement": "Nrf2 nuclear translocation", "setting": "[1]", "result": "induced its nuclear translocation"}, {"measurement": "ARE-luciferase luminescence", "setting": "[2]", "result": "enhanced luminescence"}, {"measurement": "endothelial barrier leakage induced by VEGF", "setting": "[3]", "result": "protected from endothelial barrier leakage"}, {"measurement": "cell viability of 5FUR colon cancer cell lines, combination with 5FU", "setting": "[4]", "result": "reduced cell viability"}]}, {"smiles": "O=c1oc2cc(O)ccc2c2ccc(O)cc12", "note": "[UroA, 3,8-dihydroxy-6H-dibenzo[b,d]pyran-6-one]", "values": [{"measurement": "NQO1 expression in HT29 cells", "setting": "[1]", "result": "induced NQO1 expression"}, {"measurement": "Nrf2 mRNA and protein levels", "setting": "[1]", "result": "upregulated Nrf2"}, {"measurement": "Nrf2 nuclear translocation", "setting": "[1]", "result": "induced its nuclear translocation"}, {"measurement": "ARE-luciferase luminescence", "setting": "[2]", "result": "enhanced luminescence"}, {"measurement": "endothelial barrier leakage induced by VEGF", "setting": "[3]", "result": "protected from endothelial barrier leakage"}, {"measurement": "cell viability of 5FUR colon cancer cell lines, combination with 5FU", "setting": "[4]", "result": "reduced cell viability"}]}]}
